Source: patent publication EP0908457B1, “3-(1,2-benzisothiazol- and isoxazol-5-Y1)-2,4(1H,3H)-pyrimidinedione or thione and 3-(1,2-benzisothiazol- and isoxazol-5-y1)-4(3H)-pyrimidinone or thione herbicidal agents” (BASF AKTIENGESELLSCHAFT, priority 1997, dated 1999)

Tests used:
[1] = test system: Oryza sativa, (L.) Tebonnet; test: Rice tolerance to post-transplant applications under flooded paddy conditions (Example 188), ORYSAT (Rice, Tebonnet); conditions: rated three to four weeks after treatment
Sagittaria pygmaea, L. [2] = test: Preemergence weed control under flooded paddy conditions, SAGPY (Arrowhead (Pygmaea)); assay type: in vivo; conditions: preemergence, flooded paddy, rated three to four weeks after treatment; further: meaning of each grade not given here
[3] = test system: Echinochloa oryzoides (Ard.) Fritsch.; test: Postemergence weed control under flooded paddy conditions, ECHORC (Watergrass (Calif.)); assay type: in vivo; conditions: rated three to four weeks after treatment
[4] = test system: Echinochloa oryzoides (Ard.) Fritsch.; test: Preemergence weed control under flooded paddy conditions, ECHORC (Watergrass (Calif.)); assay type: in vivo; conditions: preemergence, flooded paddy, rated three to four weeks after treatment; further: meaning of each grade not given here
Sagittaria pygmaea, L. [5] = test: Postemergence weed control under flooded paddy conditions, SAGPY (Arrowhead (Pygmaea)); assay type: in vivo; conditions: rated three to four weeks after treatment
Cyperus iria [6] = test: Preemergence weed control under flooded paddy conditions, CYPIR (Rice Flatsedge); assay type: in vivo; conditions: preemergence, flooded paddy, rated three to four weeks after treatment; further: meaning of each grade not given here
[7] = test system: Cyperus serotinus, Rottb.; test: Postemergence weed control under flooded paddy conditions, CYPSE (Flatsedge); assay type: in vivo; conditions: rated three to four weeks after treatment
[8] = test system: Monochoria vaginalis, Presl.; test: Preemergence weed control under flooded paddy conditions, MOOVA (Monochoria); assay type: in vivo; conditions: preemergence, flooded paddy, rated three to four weeks after treatment; further: meaning of each grade not given here
[9] = test system: Cyperus serotinus, Rottb.; test: Preemergence weed control under flooded paddy conditions, CYPSE (Flatsedge); assay type: in vivo; conditions: preemergence, rated three to four weeks after treatment; further: meaning of each grade not given here
[10] = test system: Monochoria vaginalis, Presl.; test: Postemergence weed control under flooded paddy conditions, MOOVA (Monochoria); assay type: in vivo; conditions: rated three to four weeks after treatment
Cyperus iria [11] = test: Postemergence weed control under flooded paddy conditions, CYPIR (Rice Flatsedge); assay type: in vivo; conditions: rated three to four weeks after treatment
[12] = test system: Oryza sativa, (L.) Tebonnet; test: Rice tolerance to post-transplant applications under flooded paddy conditions (Example 187), ORYSAT (Rice, Tebonnet); conditions: rated three to four weeks after treatment

SMILES: COC(=O)COc1cc(C)c(C)cc1-c1nsc2ccc(-n3c(=O)cc(C(F)(F)F)n(C)c3=O)cc12 [Example 12, Methyl {{6-{5-[3,6-dihydro-3-methyl-4-(trifluoromethyl)-2,6-dioxo-1(2H)-pyrimidinyl]-1,2-benzisothiazol-3-yl}-3,4-xylyl}oxy}acetate]
- herbicidal effect rating, ORYSAT (rice tolerance) ([1]; Rate 0.0313 kg/ha): 4.0
- herbicidal effect rating, ORYSAT (rice tolerance) ([1]; Rate 0.0625 kg/ha): 4.0
- herbicidal effect rating, ORYSAT (rice tolerance) ([1]; Rate 0.1250 kg/ha): 7.0
- herbicidal effect rating, ORYSAT (rice tolerance) ([1]; Rate 0.2500 kg/ha): 7.0
- herbicidal effect rating, ORYSAT (rice tolerance) ([1]; Rate 0.5000 kg/ha): 7.0
- herbicidal effect rating, SAGPY (Sagittaria pygmaea, L. [2]; 0.0313 kg/ha): 0.0
- herbicidal effect rating, SAGPY (Sagittaria pygmaea, L. [2]; 0.0625 kg/ha): 2.0
- herbicidal effect rating, SAGPY (Sagittaria pygmaea, L. [2]; 0.1250 kg/ha): 4.0
- herbicidal effect rating, SAGPY (Sagittaria pygmaea, L. [2]; 0.2500 kg/ha): 9.0
- herbicidal effect rating, SAGPY (Sagittaria pygmaea, L. [2]; 0.5000 kg/ha): 9.0
- herbicidal effect rating, ECHORC ([3]; Rate 0.0313 kg/ha): 0.0
- herbicidal effect rating, ECHORC ([3]; Rate 0.0625 kg/ha): 2.0
- herbicidal effect rating, ECHORC ([3]; Rate 0.1250 kg/ha): 6.0
- herbicidal effect rating, ECHORC ([3]; Rate 0.2500 kg/ha): 9.0
- herbicidal effect rating, ECHORC ([3]; Rate 0.5000 kg/ha): 9.0
- herbicidal effect rating, ECHORC ([4]; 0.0313 kg/ha): 9.0
- herbicidal effect rating, ECHORC ([4]; 0.0625 kg/ha): 9.0
- herbicidal effect rating, ECHORC ([4]; 0.1250 kg/ha): 9.0
- herbicidal effect rating, ECHORC ([4]; 0.2500 kg/ha): 9.0
- herbicidal effect rating, ECHORC ([4]; 0.5000 kg/ha): 9.0
- herbicidal effect rating, SAGPY (Sagittaria pygmaea, L. [5]; Rate 0.0313 kg/ha): 0.0
- herbicidal effect rating, SAGPY (Sagittaria pygmaea, L. [5]; Rate 0.0625 kg/ha): 0.0
- herbicidal effect rating, SAGPY (Sagittaria pygmaea, L. [5]; Rate 0.1250 kg/ha): 0.0
- herbicidal effect rating, SAGPY (Sagittaria pygmaea, L. [5]; Rate 0.2500 kg/ha): 4.0
- herbicidal effect rating, SAGPY (Sagittaria pygmaea, L. [5]; Rate 0.5000 kg/ha): 9.0
- herbicidal effect rating, CYPIR (Cyperus iria [6]; 0.0313 kg/ha): 9.0
- herbicidal effect rating, CYPIR (Cyperus iria [6]; 0.0625 kg/ha): 9.0
- herbicidal effect rating, CYPIR (Cyperus iria [6]; 0.1250 kg/ha): 9.0
- herbicidal effect rating, CYPIR (Cyperus iria [6]; 0.2500 kg/ha): 9.0
- herbicidal effect rating, CYPIR (Cyperus iria [6]; 0.5000 kg/ha): 9.0
- herbicidal effect rating, CYPSE ([7]; Rate 0.0313 kg/ha): 0.0
- herbicidal effect rating, CYPSE ([7]; Rate 0.0625 kg/ha): 0.0
- herbicidal effect rating, CYPSE ([7]; Rate 0.5000 kg/ha): 2.0
- herbicidal effect rating, MOOVA ([8]; 0.0313 kg/ha): 9.0
- herbicidal effect rating, MOOVA ([8]; 0.0625 kg/ha): 9.0
- herbicidal effect rating, MOOVA ([8]; 0.1250 kg/ha): 9.0
- herbicidal effect rating, MOOVA ([8]; 0.2500 kg/ha): 9.0
- herbicidal effect rating, MOOVA ([8]; 0.5000 kg/ha): 9.0
- herbicidal effect rating, CYPSE ([9]; 0.0313 kg/ha): 6.0
- herbicidal effect rating, CYPSE ([9]; 0.0625 kg/ha): 7.0
- herbicidal effect rating, CYPSE ([9]; 0.1250 kg/ha): 8.0
- herbicidal effect rating, CYPSE ([9]; 0.2500 kg/ha): 7.0
- herbicidal effect rating, CYPSE ([9]; 0.5000 kg/ha): 7.0
- herbicidal effect rating, MOOVA ([10]; Rate 0.0313 kg/ha): 9.0
- herbicidal effect rating, MOOVA ([10]; Rate 0.0625 kg/ha): 9.0
- herbicidal effect rating, MOOVA ([10]; Rate 0.1250 kg/ha): 9.0
- herbicidal effect rating, MOOVA ([10]; Rate 0.2500 kg/ha): 9.0
- herbicidal effect rating, MOOVA ([10]; Rate 0.5000 kg/ha): 9.0
- herbicidal effect rating, CYPIR (Cyperus iria [11]; Rate 0.0313 kg/ha): 9.0
- herbicidal effect rating, CYPIR (Cyperus iria [11]; Rate 0.0625 kg/ha): 9.0
- herbicidal effect rating, CYPIR (Cyperus iria [11]; Rate 0.1250 kg/ha): 9.0
- herbicidal effect rating, CYPIR (Cyperus iria [11]; Rate 0.2500 kg/ha): 9.0
- herbicidal effect rating, CYPIR (Cyperus iria [11]; Rate 0.5000 kg/ha): 9.0
- herbicidal effect rating, ORYSAT (rice tolerance) ([12]; 0.0313 kg/ha): 4.0
- herbicidal effect rating, ORYSAT (rice tolerance) ([12]; 0.0625 kg/ha): 7.0
- herbicidal effect rating, ORYSAT (rice tolerance) ([12]; 0.1250 kg/ha): 7.0
- herbicidal effect rating, ORYSAT (rice tolerance) ([12]; 0.2500 kg/ha): 8.0
- herbicidal effect rating, ORYSAT (rice tolerance) ([12]; 0.5000 kg/ha): 9.0
